{"source": "patent US5254801A", "about": "“Heterologous dominant conditional lethal gene which is a phosphonate monoester hydrolase and use thereof in plants” (Monsanto Company, priority 1990, dated 1993)", "key": {"T12 crude extract": {"tested_on": "T12 crude extract", "test": "In vitro radioactive hydrolysis assay in crude extracts", "assay_type": "biochemical", "conditions": "strain T12", "text": "(§1) The enzymatic reaction can be assayed using labelled (3-^14 C-) glyceryl glyphosate as a substrate and following the conversion to (3-^14 C-)glyphosate as a product using a high pressure liquid chromatography system with a radioactive detector. This assay is the most specific for the phosphonate monoester hydrolase enzymes useful for conditional cell lethality. An enzyme assay consists of 40,000 cpm of labelled (3-^14 C-) glyceryl glyphosate (obtained from NEN Biochemicals), the PEH sample in buffer and buffer to 100 μl final volume. The assay buffer is 10 mM Bis-Tris propane, pH 9.0, plus 100 mM KCl. The reaction is run for 1 hour at 30° C. and then stopped by the addition of 100 μl \"quench\" which is 100 mM sodium acetate, pH 5.5, in ethanol. The denatured protein is then spun down at 10,000 rpm in a microfuge and the supernatant transferred to an HPLC injection vial. A 100 μl aliquot is then injected onto an Synchropac AX100 anion exchange column 4.6×250 mm) pre-equilibrated in 65 mM potassium phosphate buffer, pH 5.5. The radioactive compounds are eluted isocratically for 15 min at 1 ml/min. The radioactivity of the peaks is measured and integrated by a post-column detector. Typically, the substrate elutes at 4.9 min and the product, glyphosate, at 9.7 min providing baseline separation. […] Alternatively, blank reactions can be included to determine the preexisting glyphosate contamination.\n(§2) Bacteria which grew in this medium using glyceryl glyphosate as a sole phosphate source had the ability to cleave both the ester and the phosphonate bond to release the free phosphate. For these bacteria to be useful in the present invention, the first step in the mineralization of glyceryl glyphosate needed is the hydrolysis of the phosphonate ester. Each of the three bacteria which utilized glyceryl glyphosate as a phosphate source were then assayed for a phosphonate monoester hydrolase activity using an in vivo (3-^14 C-) glyceryl glyphosate assay. A 150 ml culture of each bacteria was grown in DF minimal medium with 0.2 mM HK2 PO4 as a phosphate source in a 500 ml flask, 30° C., with shaking. The bacteria were pelleted by centrifugation at 5,000×g for 10 min and resuspended at 10 mg fresh weight/ml. An assay mix included 50 μl cells plus 10 μl (3-^14 C-) glyceryl glyphosate (10,000 cpm/μl) and kept at 30° C. with shaking. After a three hour incubation period, the cells were pelleted in a microfuge and the supernatant injected onto an HPLC anion exchange column and glyphosate analyzed as described above. The pellet was washed twice with 1 ml 10 mM HEPES, pH 7.0, and resuspended in 25 μl buffer. The cells were lysed with 25 μl quench and the debris pelleted in a microfuge. The pellet extract was then analyzed for glyphosate product as described above. […]"}, "[1]": {"tested_on": "E. coli MM294, JM101, JM101/MPU+, SR200/MPU crude extract", "test": "In vitro radioactive hydrolysis assay in crude extracts", "assay_type": "biochemical", "conditions": "E. coli strains", "text": "as §1, §2"}, "T10 crude extract": {"tested_on": "T10 crude extract", "test": "In vitro radioactive hydrolysis assay in crude extracts", "assay_type": "biochemical", "conditions": "strain T10", "text": "as §1, §2"}, "LBAA crude extract": {"tested_on": "LBAA crude extract", "test": "In vitro radioactive hydrolysis assay in crude extracts", "assay_type": "biochemical", "conditions": "strain LBAA", "text": "as §1, §2"}, "[2]": {"tested_on": "E. coli JM101/vector control", "test": "Conditional lethal phenotype test on MOPS minimal plates", "assay_type": "cell-based", "text": "(§3) The NcoI-BamHI pehA:1 fragment was removed from pMON9420 by restricting the DNA with both enzymes, separating the fragments on an agarose gel, and purifying the pehA fragment from the gel using the GeneClean kit. In a similar manner the BamHI-ClaI pehA:1 fragment was obtained from pMON9421 and both were ligated into an E. coli expression vector to reconstruct the pehA:1 gene behind the RecA promoter with the […] gene 10L leader. The resulting vector, pMON9428 (FIG. 3), was transformed into E. coli strain JM101 using calcium chloride transformation and transformants selected on LB agar with 100 μg/ml spectinomycin. A single colony was isolated and confirmed by restriction mapping to contain pMON9428. The JM101/pMON9428 was then streaked out on LB agar plates containing 100 μg/ml spectinomycin and […] XPP. As a control, JM101 containing the RecA expression vector without the pehA:1 gene was streaked out on the same plate. The JM101/pMON9428 formed blue colonies while the JM101 with the control vector formed white colonies. […] The JM101/pMON9428 and vector control strain were then plated on MOPS minimal medium containing 0.05 mM HK2 PO4 as the phosphate source and 100 μg/ml spectinomycin. […] To test for a conditional lethal phenotype, both strains were streaked side by side on a MOPS minimal plate with 0.05 mM KPO4, 100 μg/ml spectinomycin and 10 mM glyceryl glyphosate. […] To confirm the lethal phenotype was the result of the degradation of the glyceryl glyphosate and subsequent inhibition of aromatic amino acid biosynthesis by glyphosate, both E. coli strains were plated on MOPS minimal medium with 0.05 mM KPO4, 100 μg/ml spectinomycin, 10 mM glyceryl glyphosate and supplemented with aromatic compounds consisting of L-tyrosine, L-tryptophan, L-phenylalanine, each at 100 μg/ml, 2,3 -dihydroxybenzoicacid and para-aminobenzoic acid, each at 5 μg/ml. […] This confirmed that the conditional lethal phenotype observed in the presence of the glyceryl glyphosate was the result of its conversion to and subsequent inhibition of EPSPS by glyphosate."}, "[3]": {"tested_on": "E. coli JM101/pMON9428 (pehA:1)", "test": "Conditional lethal phenotype test on MOPS minimal plates", "assay_type": "cell-based", "text": "as §3"}}, "data": [{"molecule": "O=C(O)CNCP(=O)(O)OCC(O)CO", "note": "(centres unmarked) [glyceryl glyphosate, glycine, N-([hydroxy (2,3 dihydroxy propoxy)phosphonyl]methyl)]", "values": [{"measurement": "Hydrolysis of Glyceryl Glyphosate into Glyphosate in Crude Extracts", "setting": "T12 crude extract", "value": "Yes"}, {"measurement": "Hydrolysis of Glyceryl Glyphosate into Glyphosate in Crude Extracts", "setting": "[1]", "value": "No"}, {"measurement": "Hydrolysis of Glyceryl Glyphosate into Glyphosate in Crude Extracts", "setting": "T10 crude extract", "value": "No"}, {"measurement": "Hydrolysis of Glyceryl Glyphosate into Glyphosate in Crude Extracts", "setting": "LBAA crude extract", "value": "Yes"}, {"measurement": "Colony formation with aromatic compound supplement", "setting": "[2]; 10 mM glyceryl glyphosate plus L-tyrosine, L-tryptophan, L-phenylalanine, 2,3-dihydroxybenzoic acid, para-aminobenzoic acid, vector control strain", "value": "formed colonies"}, {"measurement": "Toxicity (colony formation)", "setting": "[2]; 10 mM glyceryl glyphosate, MOPS minimal plate, JM101/vector control", "value": "non-toxic"}, {"measurement": "Colony formation with aromatic compound supplement", "setting": "[3]; 10 mM glyceryl glyphosate plus L-tyrosine, L-tryptophan, L-phenylalanine, 2,3-dihydroxybenzoic acid, para-aminobenzoic acid", "value": "formed colonies"}, {"measurement": "Colony formation (lethal phenotype)", "setting": "[3]; 10 mM glyceryl glyphosate, MOPS minimal plate", "value": "did not form visible colonies"}]}]}
